Patent US20140088144A1, “INHIBITING MICROBIAL INFECTIONS” (THE UNIVERSITY OF KANSAS, priority 2012, published 2014)
pIC50: −log10 of the molar value.

Experiments:
VirF = VirF (Shigella flexneri, UniProt P0A2T1); assay: Shigella virB-lacZ reporter gene assay; type: cell-based, S. flexneri; design: endogenously expressed VirF in a Shigella strain carrying a virB-lacZ reporter construct; endogenous in cells; host or cells: S. flexneri strain BS536 (virB-lacZ)
Experimental: Colonies of S. flexneri strain BS536 that were red on TSA plates containing Congo red were grown overnight in Luria-Bertani broth at 30° C. to maintain low basal expression from the virB promoter. The overnight grown cultures were diluted 1:100 into 10 ml of the same medium with either 0.3% DMSO or different concentrations of SE-1 dissolved in DMSO (final concentration 0.3% DMSO). Cultures were grown at 37° C. in a shaking incubator to an OD600 of ˜0.4, centrifuged to pellet the cells and then resuspended in Z buffer for a two-fold concentration of the cells. Control cultures were grown at 30° C., a temperature at which virF expression is not induced (37), to illustrate the basal level of expression from the virB promoter region. β-Galactosidase assays were performed, with incubation with the substrate o-nitrophenyl-β-D-galactopyranoside (ONPG) was at room temperature. Activities are presented as a percentage of the uninhibited, DMSO-only control sample. Three independent assays were performed with two replicates in each assay.

CRP = biological target: T1, CRP (Escherichia coli, UniProt P0ACJ8); assay: EMSA in vitro DNA binding by CRP; type: biochemical, E. coli; conditions: 1.3 mM compound
T1 construct: made in house; host or cells: E. coli
T1 sequence (P0ACJ8 2-210): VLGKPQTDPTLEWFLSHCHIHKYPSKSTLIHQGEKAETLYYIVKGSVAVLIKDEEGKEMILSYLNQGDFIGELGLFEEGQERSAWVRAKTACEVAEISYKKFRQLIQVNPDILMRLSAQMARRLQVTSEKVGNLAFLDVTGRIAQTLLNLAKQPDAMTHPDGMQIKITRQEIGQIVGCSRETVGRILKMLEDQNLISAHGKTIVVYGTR
Excerpt: All proteins for this study were expressed in E. coli. Untagged CRP was purified by Ni^2+-affinity chromatography as described. Lad protein was purified by ammonium sulfate precipitation and phosphocellulose column chromatography as described. RhaS-GB1^201b and GB1^b-RhaR were purified by Ni^2+-affinity chromatography. Briefly, plasmids derived from pET21 and expressing RhaS-GB1^201b and GB1^b-RhaR were transformed into competent cells of strains Acella™ (MoBiTec, Gottingen, Germany) or ArcticExpress(DE3) (Agilent Technologies, Santa Clara Calif.), respectively. The cells were grown in 1 liter TY plus ampicillin and rhamnose. Gentamycin was also added for GB1^b-RhaR. The cells were grown to OD600 of 0.5, transferred to a 15° C. shaker, 0.1 mM IPTG was added, and then incubated overnight. Cells were harvested by centrifugation and then resuspended in 30 mL of cold binding buffer (20 mM Tris, 500 mM NaCl, 5 mM imidazole, pH 7.9) plus L-rhamnose. […]
IRD700- and DY682-labeled oligos were from Eurofins MWG Operon. […] EMSA gels were imaged using an Odyssey infrared imager (LI-COR, Lincoln, Nebr.), and quantified using the Odyssey software, version 3.0.30. […] Inhibition values were calculated and graphs were drawn as for in vivo dose-response experiments.

VirF, sequence (P0A2T1 whole entry): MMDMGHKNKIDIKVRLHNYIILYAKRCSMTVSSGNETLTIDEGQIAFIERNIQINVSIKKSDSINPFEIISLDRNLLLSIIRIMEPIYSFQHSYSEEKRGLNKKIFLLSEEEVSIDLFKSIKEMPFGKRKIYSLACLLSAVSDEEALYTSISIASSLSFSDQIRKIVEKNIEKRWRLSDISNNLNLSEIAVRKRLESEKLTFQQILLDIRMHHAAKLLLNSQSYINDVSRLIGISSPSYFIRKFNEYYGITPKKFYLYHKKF

## CCCCN1C=C(c2ccc3ccccc3n2)C(C[N+](=O)[O-])c2ccccc21 (stereo not drawn) [Compound 1, 1-butyl-4-(nitromethyl)-3-quinolin-2-yl-4H-quinoline]
VirF
  pIC50: ~4.52
VirF; 40 μM SE-1
  maximum inhibition of virB-lacZ expression: greater than two fold
CRP
  CRP DNA binding retained: approximately 94%
